Measured values published in US7332608B2, “Anthranilamides and methods of their use” (SANOFI-AVENTIS Deutschland GmbH, priority 2001, dated 2008).

Molecular target: T1, Human Kv1.5 channels (Homo sapiens, UniProt P22460)
T1 construct: expressed in transfected cells; host or cells: Xenopus laevis oocytes injected with in vitro synthesized Kv1.5-encoding RNA
Experiment: Kv1.5 currents in Xenopus oocytes, two-microelectrode voltage clamp
Assay type: cell-based
Details: human Kv1.5 expressed in Xenopus laevis oocytes; voltage jumps 500 ms to 0 mV and 40 mV; room temperature; Hill equation
Method: Human Kv1.5 channels were expressed in Xenopus oocytes. For this purpose, firstly ooytes were isolated from Xenopus laevis and were defolliculated. Kv1.5-encoding RNA which had been synthesized in vitro was then injected into these oocytes. After 1-7 days of Kv1.5 protein expression, the Kv1.5 currents were measured on the oocytes by the two-microelectrode voltage clamp technique. The Kv1.5 channels were for this purpose usually activated with voltage jumps lasting 500 ms to 0 mV and 40 mV. A solution of the following composition flowed through the bath: NaCl 96 mM, KCl 2 mM, CaCl2 1.8 mM, MgCl2 1 mM, HEPES 5 mM (titrated to pH 7.4 with NaOH). These experiments were carried out at room temperature. The following were employed for data acquisition and analysis: geneclamp amplifier (Axon Instruments, Foster City, USA) and MacLab D/A converter and software (ADInstruments, Castle Hill, Australia). The compounds of the invention were tested by adding them in various concentrations to the bath solution. The effects of the compounds were calculated as percentage inhibition of the Kv1.5 control current which was obtained when no compound was added to the solution. The data were then extrapolated using the Hill equation in order to determine the inhibitory concentrations IC50 for the respective compounds.

T1 sequence (P22460 whole entry): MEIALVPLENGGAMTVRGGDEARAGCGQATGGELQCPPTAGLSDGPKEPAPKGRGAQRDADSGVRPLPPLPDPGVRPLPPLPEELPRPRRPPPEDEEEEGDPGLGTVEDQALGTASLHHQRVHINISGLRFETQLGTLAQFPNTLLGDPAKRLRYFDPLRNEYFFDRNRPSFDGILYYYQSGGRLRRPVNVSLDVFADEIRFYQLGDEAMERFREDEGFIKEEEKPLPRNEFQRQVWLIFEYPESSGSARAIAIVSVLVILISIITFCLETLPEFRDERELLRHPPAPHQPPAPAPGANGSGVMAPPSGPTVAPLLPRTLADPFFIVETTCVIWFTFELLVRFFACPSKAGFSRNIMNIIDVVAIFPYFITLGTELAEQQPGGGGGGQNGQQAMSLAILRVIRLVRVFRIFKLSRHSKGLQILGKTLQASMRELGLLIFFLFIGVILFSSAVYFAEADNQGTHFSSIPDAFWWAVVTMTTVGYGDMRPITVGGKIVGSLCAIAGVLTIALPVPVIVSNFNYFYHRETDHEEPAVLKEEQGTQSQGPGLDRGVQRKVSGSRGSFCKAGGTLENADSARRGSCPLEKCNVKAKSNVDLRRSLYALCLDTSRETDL

IC50 [µM]	SMILES
5.5	C[C@H](NC(=O)c1cc(Cl)ccc1NS(=O)(=O)c1ccccc1)c1ccccc1 [Example 1, (S)-2-Phenylsulfonylamino-5-chloro-N-(1-phenylethyl)benzamide]
8.2	C[C@@H](NC(=O)c1cc(Cl)ccc1NS(=O)(=O)c1ccccc1)c1ccccc1 [Example 2, (R)-2-Phenylsulfonylamino-5-chloro-N-(1-phenylethyl)benzamide]
2.8	CC[C@H](NC(=O)c1cc(Cl)ccc1NS(=O)(=O)c1ccccc1)c1ccccc1 [Example 3, (S)-2-Phenylsulfonylamino-5-chloro-N-(1-phenylpropyl)benzamide]
4.1	CC[C@@H](NC(=O)c1cc(Cl)ccc1NS(=O)(=O)c1ccccc1)c1ccccc1 [Example 4, (R)-2-Phenylsulfonylamino-5-chloro-N-(1-phenylpropyl)benzamide]
4.5	COc1ccc([C@H](C)NC(=O)c2cc(Cl)ccc2NS(=O)(=O)c2ccccc2)cc1 [Example 5, (S)-2-Phenylsulfonylamino-5-chloro-N-[1-(4-methoxyphenyl)ethyl]-benzamide]
8.2	COc1ccc([C@@H](C)NC(=O)c2cc(Cl)ccc2NS(=O)(=O)c2ccccc2)cc1 [Example 6]
5.1	O=C(NC(c1ccccc1)c1ccccn1)c1cc(Cl)ccc1NS(=O)(=O)c1ccccc1 (stereo not shown) [Example 7, 2-Phenylsulfonylamino-5-chloro-N-(phenylpyridin-2-ylmethyl)benzamide]
0.9	Cc1ccc(S(=O)(=O)Nc2ccccc2C(=O)N(Cc2ccccc2)Cc2cccnc2)cc1 [Example 8, N-Benzyl-N-pyridin-3-ylmethyl-2-(toluene-4-sulfonylamino)benzamide]
4.9	COc1ccc(S(=O)(=O)Nc2cc(C)ccc2C(=O)NC(C)c2ccccc2)cc1 (stereo not shown) [Example 9]
2.5	CCC(NC(=O)c1cccc(C)c1NS(=O)(=O)c1ccc(Cl)cc1)c1ccccc1 (stereo not shown) [Example 10]
8	CCN(C(=O)c1ccccc1NS(=O)(=O)c1ccc(Cl)cc1)C1CCCCC1 [Example 11]
5.4	CCN(C(=O)c1ccccc1NS(=O)(=O)c1ccc(C)cc1)C1CCCCC1 [Example 12]
8.5	Cc1ccc(S(=O)(=O)Nc2ccc(F)cc2C(=O)NC2CCCCC2)cc1 [Example 14]
7.8	CCN(C(=O)c1cc(F)ccc1NS(=O)(=O)c1ccc(C)cc1)C1CCCCC1 [Example 15]
6.4	CCN(C(=O)c1cc(Cl)ccc1NS(=O)(=O)c1ccc(C)cc1)C1CCCCC1 [Example 16]
7.5	O=C(NC1CCCCC1)c1cc(Cl)ccc1NS(=O)(=O)c1ccccc1 [Example 17]
6.7	CCN(C(=O)c1cc(Cl)ccc1NS(=O)(=O)c1ccccc1)C1CCCCC1 [Example 18]
4.2	COc1ccc(S(=O)(=O)Nc2c(C)cccc2C(=O)NC(C)c2ccccc2)cc1 (stereo not shown) [Example 19]
7.7	CCCCS(=O)(=O)Nc1cc(C)ccc1C(=O)NC1CCCCC1 [Example 20]
5.2	Cc1ccc(NS(=O)(=O)c2ccccc2)c(C(=O)NC2CCCCC2)c1 [Example 21]
4.8	Cc1cccc(NS(=O)(=O)c2ccc(Cl)cc2)c1C(=O)NC1CCCCC1 [Example 22]
5	Cc1cccc(NS(=O)(=O)c2ccc(Cl)cc2)c1C(=O)NC(C)c1ccccc1 (stereo not shown) [Example 23]
3	CCC(NC(=O)c1c(C)cccc1NS(=O)(=O)c1ccc(Cl)cc1)c1ccccc1 (stereo not shown) [Example 24]
3.4	COc1ccc(S(=O)(=O)Nc2cc(C)ccc2C(=O)NC2CCCCC2)cc1 [Example 25]
0.6	CCC(NC(=O)c1cc(OC)ccc1NS(=O)(=O)c1ccc(C)cc1)c1ccccc1 (stereo not shown) [Example 26]
5.6	COc1ccc(NS(=O)(=O)c2ccc(C)cc2OC)c(C(=O)NC2CCC(C)CC2)c1 (stereo not shown) [Example 27]
3.2	Cc1ccc(S(=O)(=O)Nc2ccccc2C(=O)NC(C)c2ccccc2)cc1 (stereo not shown) [Example 28]
5.1	COc1cc(C)ccc1S(=O)(=O)Nc1ccc(Cl)cc1C(=O)NCCOCc1ccccc1 [Example 29]
